The results in this text go back to ChEMBL document CHEMBL2401642, “Sphingosine kinase 2 inhibitor SG-12 induces apoptosis via phosphorylation by sphingosine kinase 2” (2013).

For orientation: inhibition means how much of the control response was suppressed.

The source made the active and inactive calls. No cut-off for these calls is given here.

In assay [1] the target is Sphingosine kinase 1 (Mus musculus) (UniProt Q8CI15). Description: Activity at mouse SPHK1 transfected in mouse A20/2J cell lysates assessed as compound phosphorylation at 10 uM after 30 mins by autoradiography in presence of [gamma-32P]ATP. The assay is classed as cell-free.
The target in assay [2] is T1, Sphingosine kinase 2 (Mus musculus) (UniProt Q9JIA7).
T1 sequence (whole entry): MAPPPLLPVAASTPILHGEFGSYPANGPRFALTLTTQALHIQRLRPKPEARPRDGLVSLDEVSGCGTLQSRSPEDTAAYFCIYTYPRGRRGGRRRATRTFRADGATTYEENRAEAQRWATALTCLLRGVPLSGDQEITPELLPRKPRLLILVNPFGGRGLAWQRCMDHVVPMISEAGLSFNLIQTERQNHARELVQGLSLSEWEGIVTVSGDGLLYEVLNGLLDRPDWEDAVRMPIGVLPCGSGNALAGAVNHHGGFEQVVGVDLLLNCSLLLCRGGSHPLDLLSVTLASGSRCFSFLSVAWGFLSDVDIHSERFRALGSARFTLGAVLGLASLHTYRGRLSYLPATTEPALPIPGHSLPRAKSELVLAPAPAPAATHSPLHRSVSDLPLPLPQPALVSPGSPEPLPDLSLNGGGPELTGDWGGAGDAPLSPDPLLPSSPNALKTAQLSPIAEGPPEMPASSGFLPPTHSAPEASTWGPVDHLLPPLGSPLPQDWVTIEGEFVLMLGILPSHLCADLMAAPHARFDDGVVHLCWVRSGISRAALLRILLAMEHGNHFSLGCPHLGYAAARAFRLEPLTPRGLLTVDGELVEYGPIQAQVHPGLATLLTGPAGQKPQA
Put plainly: Activity at mouse SPHK2 transfected in mouse A20/2J cell lysates assessed as compound phosphorylation at 10 uM after 30 mins by autoradiography in presence of [gamma-32P]ATP. The assay is classed as cell-free.

The target of assay [3] is Sphingosine kinase 1 (Mus musculus) (UniProt Q8CI15). Put plainly: Inhibition of mouse SPHK1 in mouse A20/2J cells using [3-3H]sphingosine as substrate assessed as [3H]S1P formation at 2 to 4 uM incubated for 5 mins prior to substrate addition measured after 5 mins. The assay is classed as cell-based.
For assay [4], the target named is T1, Sphingosine kinase 2 (Mus musculus). Description: Inhibition of mouse SPHK2 in mouse A20/2J cells using [3-3H]sphingosine as substrate assessed as [3H]S1P formation at 2 to 4 uM incubated for 5 mins prior to substrate addition measured after 5 mins. It counts as cell-based.
A short description of assay [5]: Induction of apoptosis in mouse SPHK2-transfected mouse A20/2J cells assessed as early apoptotic cells at 8 uM after 6 hrs by FITC-annexin V/propidium iodide staining-based flow cytometric analysis (reference value: 2.48%). It counts as functional. (A flow cytometer gives signals particle by particle.)
Assay [6] can be described thus: Induction of apoptosis in mouse SPHK2-transfected mouse A20/2J cells assessed as viable cells at 8 uM after 6 hrs by FITC-annexin V/propidium iodide staining-based flow cytometric analysis (reference value: 96.1%). The settings on record: read-out: Activity. The assay is classed as functional.
Assay [7] in a line: Induction of apoptosis in mouse SPHK2-transfected mouse A20/2J cells assessed as late apoptotic cells at 8 uM after 6 hrs by FITC-annexin V/propidium iodide staining-based flow cytometric analysis (reference value: 1.12%). The assay is classed as functional.
Assay [8] is described as follows: Induction of apoptosis in mouse A20/2J cells assessed as early apoptotic cells at 8 uM after 6 hrs by FITC-annexin V/propidium iodide staining-based flow cytometric analysis (reference value: 2.58%). It counts as functional.
A short description of assay [9]: Induction of apoptosis in mouse A20/2J cells assessed as viable cells at 8 uM after 6 hrs by FITC-annexin V/propidium iodide staining-based flow cytometric analysis (reference value: 95.9%). It counts as functional. The settings on record: read-out: Activity.
For assay [10], the system named is A20/2J. Description: Induction of apoptosis in mouse SPHK1-transfected mouse A20/2J cells assessed as increase in LDH release at 50 uM. The assay is classed as functional, cell-based. (In general: Release of lactate dehydrogenase indicates damage to the cell membrane.)
Assay [11] relates to A20/2J. Put plainly: Induction of apoptosis in mouse A20/2J cells assessed as increase in LDH release at 10 uM up to 10 hrs. It counts as functional, cell-based.
The subject of assay [12] is A20/2J. Description: Induction of apoptosis in mouse SPHK1-transfected mouse A20/2J cells assessed as increase in LDH release at 10 uM up to 10 hrs. The assay is classed as functional, cell-based.
Assay [13] is described as follows: Induction of apoptosis in mouse A20/2J cells assessed as activation of caspase 3 at 10 uM after 3 hrs by flow cytometric analysis. It counts as functional.
Assay [14] can be described thus: Induction of apoptosis in mouse SPHK2-transfected mouse A20/2J cells assessed as activation of caspase 3 at 10 uM after 3 hrs by flow cytometric analysis. It counts as functional.
In assay [15] the test system is A20/2J. Put plainly: Induction of apoptosis in mouse SPHK2-transfected mouse A20/2J cells assessed as chromatin condensation at 8 uM after 18 hrs by transmission electron microscopy. It counts as functional, cell-based.
Assay [16] relates to A20/2J. Put plainly: Induction of apoptosis in mouse SPHK2-transfected mouse A20/2J cells at 8 uM after 6 hrs by flow cytometric analysis in presence of pan-caspase inhibitor z-VAD-fmk. The assay is classed as functional, cell-based.
Assay [17] in a line: Induction of apoptosis in mouse N-terminal FLAG-tagged SPHK1-transfected mouse A20/2J cells at 10 uM after 9 hrs by LDH release assay. The assay is classed as functional.
Assay [18] can be described thus: Induction of apoptosis in mouse SPHK2 L219A mutant-transfected mouse A20/2J cells at 10 uM after 9 hrs by LDH release assay. The assay is classed as functional.
A short description of assay [19]: Induction of apoptosis in mouse SPHK2 G213D mutant-transfected mouse A20/2J cells at 10 uM after 9 hrs by LDH release assay. It counts as functional.
The nature of assay [20]: Induction of apoptosis in mouse N-terminal FLAG-tagged SPHK2-transfected mouse A20/2J cells at 10 uM after 9 hrs by LDH release assay. It counts as functional.
A short description of assay [21]: Induction of apoptosis in mouse SPHK2 R293E/R294E mutant-transfected mouse A20/2J cells at 10 uM after 9 hrs by LDH release assay. The assay is classed as functional.
Assay [22] deals with A20/2J. Description: Induction of apoptosis in mouse SPHK2-transfected mouse A20/2J cells assessed as increase in LDH release at 50 uM. The assay is classed as functional, cell-based.
The subject of assay [23] is A20/2J. Put plainly: Induction of apoptosis in mouse SPHK2-transfected mouse A20/2J cells assessed as increase in LDH release after 8 hrs. The assay is classed as functional, cell-based.
The test system of assay [24] is A20/2J. Description: Induction of apoptosis in mouse SPHK2-transfected mouse A20/2J cells assessed as increase in LDH release at 10 uM after 6 hrs. It counts as functional, cell-based.
Assay [25] concerns A20/2J. Put plainly: Induction of apoptosis in mouse SPHK2-transfected mouse A20/2J cells assessed as increase in LDH release at 10 uM. The assay is classed as functional, cell-based. The settings on record: TDE = time-dependent effect.
The nature of assay [26]: Induction of apoptosis in mouse A20/2J cells assessed as late apoptotic cells at 8 uM after 6 hrs by FITC-annexin V/propidium iodide staining-based flow cytometric analysis (reference value: 1.39%). It counts as functional.
The target of assay [27] is Sphingosine kinase 1 (Mus musculus) (UniProt Q8CI15). Put plainly: Inhibition of mouse SPHK1 in mouse A20/2J cells using [3-3H]sphingosine as substrate assessed as [3H]S1P formation at 8 uM incubated for 5 mins prior to substrate addition measured after 5 mins. It counts as cell-based.
The target of assay [28] is T1, Sphingosine kinase 2 (Mus musculus). Put plainly: Inhibition of mouse SPHK2 in mouse A20/2J cells using [3-3H]sphingosine as substrate assessed as [3H]S1P formation at 8 uM incubated for 5 mins prior to substrate addition measured after 5 mins. The assay is classed as cell-based.
Assay [29] is described as follows: Induction of apoptosis in mouse SPHK1-transfected mouse A20/2J cells assessed as activation of caspase 3 at 10 uM after 3 hrs by flow cytometric analysis. The assay is classed as functional.

Sequence of Sphingosine kinase 1 (Mus musculus) (Q8CI15 whole entry): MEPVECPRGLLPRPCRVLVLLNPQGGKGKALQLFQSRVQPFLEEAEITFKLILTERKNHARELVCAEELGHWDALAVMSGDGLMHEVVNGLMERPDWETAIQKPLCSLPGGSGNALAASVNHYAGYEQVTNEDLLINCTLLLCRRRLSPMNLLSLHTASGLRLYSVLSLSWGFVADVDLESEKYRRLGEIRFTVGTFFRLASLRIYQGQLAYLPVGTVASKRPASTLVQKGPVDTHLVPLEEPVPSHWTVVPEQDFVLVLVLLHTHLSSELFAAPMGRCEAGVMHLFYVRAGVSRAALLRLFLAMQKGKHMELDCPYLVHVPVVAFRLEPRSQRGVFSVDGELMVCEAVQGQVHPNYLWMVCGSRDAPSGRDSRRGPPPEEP

As for `CCCCCCCCc1ccc(C[C@H](O)[C@@H](N)CO)cc1`, the outcome in assay [1] and in [2] was Active. For the same compound, the inhibition entry in [3] and in assay [4] was “inactive” in each case.

Turning to `CCCCCCCCc1ccc(C[C@@H](O)[C@@H](N)CO)cc1`, the Activity was 7.86% in [5]; 19% in assay [7]; 5.06% in assay [8]; 9.6% in assay [13]; 31.8% in assay [14]; 17.8% in assay [17]. In addition, the Activity in [18] is 20.3%; in assay [19], 9.8%; in [20], 18.4%; in assay [21], 13.2%; in the assay on A20/2J [23], “Dose-dependent effect”; with A20/2J [25] it was “tde”. The Activity is given as 1.62% in assay [26] and 6.4% in assay [29]. Also, the values for the viability at 8 µM in assay [6] and in [9] were 70.1% and 93.2%, respectively. The outcome (in the assay on A20/2J [10]; in assay [1]; in the assay on A20/2J [11]; with A20/2J [12]; in the assay on A20/2J [15]; with A20/2J [16]) was Active. Moreover, the outcome (in assay [2]; in the assay with A20/2J [22]; in the assay on A20/2J [24]) was Active. Moreover, the inhibition result in assay [3] and in [4] was “Active” throughout. The inhibition in [27] amounted to 8%; in [28], 46%.
